From patent US5849782A, “Methods of inhibiting neurodegenerative diseases” (The General Hospital Corporation, priority 1996, dated 1998)

Key:
dopamine transporter = dopamine transporter (Mus musculus, UniProt Q61327); conditions: read-out: concentration giving complete inhibition of [3H]dopamine uptake
Male Swiss-Webster mice [1] = experiment: 3-nitrotyrosine to tyrosine ratio in mouse striatum after MPTP; assay type: in vivo; conditions: MPTP 20 mg/kg x4
Method: (§1) Dopamine, 3,4-dihydroxyphenlyacetic acid (DOPAC), homovanillic acid (HVA), p-tyrosine, and 3-nitrotyrosine were quantified by HPLC with 16-electrode electrochemical detection (Beal et al. (1990) supra) and are expressed as ng/mg protein (mean±SEM) (FIG. 1). 3-Nitrotyrosine data are expressed as ratios of 3-nitrotyrosine to p-tyrosine to normalize for differing brain concentrations of tyrosine. The statistical significance of differences was determined via one-way ANOVA followed by Fisher PLSD post hoc test to compare group means. All animal use procedures were in strict accordance with the NIH Guide for the Care and Use of Laboratory Animals and were approved by the local Animal Care Committee.
Role of Peroxynitrite in MPTP. To determine whether peroxynitrite plays a role in MPTP neurotoxicity, we therefore measured the ratio of 3-nitrotyrosine to tyrosine in mouse striatum following administration of MPTP.

Male Swiss-Webster mice [2] = experiment: MPTP-induced neurotoxicity in mice: striatal dopamine, DOPAC, HVA; assay type: in vivo, mouse; conditions: at 1 week
Method: Methods. Male Swiss-Webster mice (30-35 g:Taconic Farms, Germantown, N.Y., U.S.A.) were treated with either normal saline or MPTP hydrochloride (Research Biochemicals, Natick, Mass., U.S.A.). MPTP was administered in 0.1 ml of water at a dose of 10 mg/kg i.p. at 2-h intervals for six doses or 20 mg/kg i.p. at 2-h intervals for four doses. 7-NI (Cookson Chemical Ltd., Southhampton, U.K.) was dissolved in peanut oil (Sigma, St. Louis, Mo., U.S.A.) at a concentration of 5 mg/ml. Mice received doses of 25 or 50 mg/kg per subcutaneous injection. MPTP-treated animals were treated with peanut oil or 7-NI 12 h before the first, at every MPTP injection, and every 8 h for 48 h after MPTP injections. Eleven to 12 animals were used in each group. Animals were killed at 1 week. The two striata were rapidly dissected and placed in chilled 0.1M perchloric acid. Tissue was subsequently sonicated, and aliquots were taken for protein quantification using a fluorometric assay (Beal et al., 1990) J. Neurochem. 55:1327-1339).
as §1

Male Sprague-Dawley rats = experiment: Spontaneous striatal electrophysiological activity; conditions: MK-801 4 mg/kg after 7-NI; urethane anesthetized rats
Method: Electrophysiology. Four male Sprague-Dawley rats weighing 300 to 400 g were used for electrophysiological studies. Animals were anesthetized with urethane 1.5 g/kg i.p. and placed in a stereotaxic apparatus with their body temperatures maintained at 37° C. by a feedback heating pad. A 0.5×0.5 cm craniotomy was made and recording electrodes were placed in the anterior striatum using stereotaxic coordinates and aural monitoring. Following electrode placement the craniotomy was covered with 4% agar in saline and 30 min were allowed for stabilization before recordings were made. The spontaneous activity of multiple units were recorded extracellularly in the striatum, 3-4 mm anterior to the bregma and 3-4 mm lateral to the midline at a depth of 2.5-4.0 mm using commercially available tungsten microelectrodes (4 M.OMEGA. at 1 kHz, F. Haer, Inc.). […] Data acquisition and analysis of mean firing rate was performed using Discovery.COPYRGT., Experimenters WorkBench.COPYRGT. and Personal Scientific Workstation.COPYRGT. software (DataWave Technologies, Longmont, Colo.). We investigated the electrophysiological effects of the NMDA antagonist MK-801 and the NOS inhibitor 7-NI. […] Finally, spontaneous activity was recorded after the NMDA channel mediated activity was blocked by injection of MK-801 (4 mg/kg).

[3] = 3-NP-induced neurotoxicity in vitro; Riepe et al. 1994; cited from earlier work
[4] = MPTP 10 mg/kg x6 at 2-h intervals

Chain of dopamine transporter (Q61327 whole entry): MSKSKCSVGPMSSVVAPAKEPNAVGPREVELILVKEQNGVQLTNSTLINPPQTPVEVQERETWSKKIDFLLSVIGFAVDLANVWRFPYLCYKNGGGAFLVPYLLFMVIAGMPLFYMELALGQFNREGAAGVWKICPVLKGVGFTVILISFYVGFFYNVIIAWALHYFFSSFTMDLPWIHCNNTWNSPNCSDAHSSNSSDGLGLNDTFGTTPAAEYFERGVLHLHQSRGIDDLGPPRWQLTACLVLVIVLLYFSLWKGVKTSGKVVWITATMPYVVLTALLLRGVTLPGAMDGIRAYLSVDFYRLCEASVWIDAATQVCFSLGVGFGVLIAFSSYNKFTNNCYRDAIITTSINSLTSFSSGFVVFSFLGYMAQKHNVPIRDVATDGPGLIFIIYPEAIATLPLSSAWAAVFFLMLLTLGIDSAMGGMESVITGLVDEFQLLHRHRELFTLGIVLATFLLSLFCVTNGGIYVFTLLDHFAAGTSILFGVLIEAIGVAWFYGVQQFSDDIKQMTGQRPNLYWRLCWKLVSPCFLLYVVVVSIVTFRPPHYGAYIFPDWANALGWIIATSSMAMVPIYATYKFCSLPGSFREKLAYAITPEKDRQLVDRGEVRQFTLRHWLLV

## OC1(c2ccc(Cl)cc2)c2ccccc2C2=NCCN21 (centres unmarked) [mazindol, reference compound]
Dopamine transporter
  IC100: 1 µM

## CN1CC=C(c2ccccc2)CC1 [MPTP, 1-methyl-4-phenyl1,2,3,6-tetrahydropyridine]
Male Swiss-Webster mice [1]
  increase of 3-nitrotyrosine to tyrosine ratio: 31%
Male Swiss-Webster mice [2]; [4]
  depletion in striatal DOPAC levels: 27%
  depletion in striatal HVA levels: 35%
  depletion in striatal dopamine levels: 38%
Male Swiss-Webster mice [2]; MPTP 20 mg/kg x4
  depletion in striatal dopamine levels: 64%

## C[C@]12N[C@H](Cc3ccccc31)c1ccccc12 [MK-801, reference compound]
Male Sprague-Dawley rats
  decrease in mean firing rate in striatum: rapid and profound
[3]
  effect on ATP depletions: had no effect
